Tests used:
S. pneumoniae ATCC 49619 = assay: MIC, NCCLS broth microdilution; format: cell-based, Streptococcus pneumoniae; conditions: E = S. pneumoniae ATCC 49619
Procedure, shortened: (§1)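 MIC values come from microtiter-plate broth microdilution run to NCCLS standards (M7-A4, M11-A4, M27-T). For C. albicans ATCC 38247, the antifungal procedure of the 1995 Manual of Clinical Microbiology was used instead.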

S. aureus ATCC 27660 = assay: MIC, NCCLS broth microdilution; format: cell-based, Staphylococcus aureus; conditions: B = S. aureus ATCC 27660 (MRSA)
Procedure, shortened: (§2)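 Compounds were serially diluted in broth and tested against each strain according to NCCLS guidelines, with MIC taken as the endpoint. C. albicans was assayed per the Manual of Clinical Microbiology.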

S. aureus ATCC 13709 = assay: MIC, NCCLS broth microdilution; format: cell-based, Staphylococcus aureus; conditions: A = S. aureus ATCC 13709 (MSSA)
Procedure, shortened: as §2

E. coli ATCC 25922 = assay: MIC, NCCLS broth microdilution; format: cell-based, Escherichia coli; conditions: G = E. coli ATCC 25922
Procedure, shortened: as §1

B. cereus ATCC 11778 = assay: MIC, NCCLS broth microdilution; format: cell-based, Bacillus cereus; conditions: D = B. cereus ATCC 11778
Procedure, shortened: as §2

[1] = tested on: M. catarrhalis (ATCC 25238); assay: MIC, NCCLS broth microdilution; format: cell-based, Moraxella (now Branhamella) catarrhalis; conditions: H = M. catarrhalis (ATCC 25238)
Procedure, shortened: as §2

E. faecalis ATCC 29212 = assay: MIC, NCCLS broth microdilution; format: cell-based, Enterococcus faecalis; conditions: C = E. faecalis ATCC 29212
Procedure, shortened: as §1

C. albicans ATCC 38247 = assay: MIC, antifungal assay; format: cell-based, Candida albicans; conditions: F = C. albicans ATCC 38247
Procedure, shortened: as §2

[2] = tested on: Staphylococcus aureus ATCC 13709; assay: Disc diffusion of non-formulated compounds; format: cell-based; conditions: ATCC13709, non-formulated compound, 30 μg/disc, S. aureus ATCC 13709 on TSA, 6.3 mm disc = no inhibition zone, read-out: Zone Diameter (nearest whole mm)
Method: (§3) The diffusion assays on a compound of this invention were performed according to NCCLS Guidelines (Performance Standards for Antimicrobial Susceptibility Testing, M100-S12 vol. 22 and Performance Standards for Antimicrobial Disk Susceptibility Tests, M2-A7 vol. 20) with the following modifications: Generally, diffusion of the drug from the inoculation site (the disk or the well, as the case may be) through the agar creates a concentration gradient of the test compound. Bacterial growth is inhibited by the drug, creating a zone of inhibition. […] The activity of the compound was determined by measurement of the zone of inhibition surrounding the disk. The results are provided in Tables C, D, and E. The diffusion results of Table C measure the diffusion of free compound. The diffusion results of Tables D and E measure the diffusion of compound formulated into a cream.

[3] = tested on: Streptococcus pneumoniae ATCC 49619; assay: Disc diffusion of non-formulated compounds; format: cell-based; conditions: ATCC49619, non-formulated compound, 30 μg/disc, S. pneumoniae ATCC 49619 on TSA + 5% Sheep Blood, 6.3 mm disc = no inhibition zone, read-out: Zone Diameter (nearest whole mm)
Method: as §3

[4] = tested on: Enterococcus faecalis ATCC 29212; assay: Disc diffusion of non-formulated compounds; format: cell-based; conditions: ATCC29212, non-formulated compound, 30 μg/disc, E. faecalis ATCC 29212 on TSA + 5% Sheep Blood, 6.3 mm disc = no inhibition zone, read-out: Zone Diameter (nearest whole mm)
Method: as §3

| SMILES | Minimum Inhibitory Concentration (MIC) (S. pneumoniae ATCC 49619) | Minimum Inhibitory Concentration (MIC) (S. aureus ATCC 27660) | Minimum Inhibitory Concentration (MIC) (S. aureus ATCC 13709) | Minimum Inhibitory Concentration (MIC) (E. coli ATCC 25922) | Minimum Inhibitory Concentration (MIC) (B. cereus ATCC 11778) | Minimum Inhibitory Concentration (MIC) [1] | Minimum Inhibitory Concentration (MIC) (E. faecalis ATCC 29212) | Minimum Inhibitory Concentration (MIC) (C. albicans ATCC 38247) | zone of inhibition at 30 µg/disc [2] | zone of inhibition at 30 µg/disc [3] | zone of inhibition at 30 µg/disc [4] |
| --- | --- | --- | --- | --- | --- | --- | --- | --- | --- | --- | --- |
| Cn1cc(NC(=O)c2cc3ccccc3cn2)cc1C(=O)Nc1ccc(C(=O)Nc2cn(C)c(C(=O)NCCNc3ccccn3)n2)cc1 [Compound A-23] | +++ (MIC ≦ 4 μg/mL) | +++ (MIC ≦ 4 μg/mL) | +++ (MIC ≦ 4 μg/mL) | >32 µg/mL | +++ (MIC ≦ 4 μg/mL) | +++ (MIC ≦ 4 μg/mL) | +++ (MIC ≦ 4 μg/mL) | >32 µg/mL |  |  |  |
| Cn1cc(NC(=O)c2cc3ccccc3cn2)cc1C(=O)Nc1ccc(C(=O)Nc2cn(C)c(C(=O)NCCN3CCCCC3CN3CCCC3)n2)cc1 (centres unmarked) [Compound A-40] | +++ (MIC ≦ 4 μg/mL) | +++ (MIC ≦ 4 μg/mL) | +++ (MIC ≦ 4 μg/mL) | >32 µg/mL | +++ (MIC ≦ 4 μg/mL) | ++ (4 < MIC < 12 μg/mL) | +++ (MIC ≦ 4 μg/mL) | >32 µg/mL |  |  |  |
| Cn1cc(NC(=O)c2nccc3ccccc23)cc1C(=O)Nc1ccc(C(=O)Nc2cn(C)c(C(=O)NCCN3CCC(O)CC3)n2)cc1 [Compound A-5] | +++ (MIC ≦ 4 μg/mL) | +++ (MIC ≦ 4 μg/mL) | +++ (MIC ≦ 4 μg/mL) | >32 µg/mL | +++ (MIC ≦ 4 μg/mL) | >32 µg/mL | +++ (MIC ≦ 4 μg/mL) | >32 µg/mL |  |  |  |
| Cn1cc(NC(=O)c2cc3ccccc3cn2)cc1C(=O)Nc1ccc(C(=O)Nc2cn(C)c(C(=O)NCCN3CCC(OC(=O)CCN)CC3)n2)cc1 [Compound A-60] | +++ (MIC ≦ 4 μg/mL) | +++ (MIC ≦ 4 μg/mL) | +++ (MIC ≦ 4 μg/mL) | >32 µg/mL | +++ (MIC ≦ 4 μg/mL) | ++ (4 < MIC < 12 μg/mL) | +++ (MIC ≦ 4 μg/mL) | ++ (4 < MIC < 12 μg/mL) |  |  |  |
| COC1CCN(CCNC(=O)c2nc(NC(=O)c3ccc(NC(=O)c4cc(NC(=O)c5cc6ccccc6cn5)cn4C)cc3)cn2C)CC1 [Compound A-20] | +++ (MIC ≦ 4 μg/mL) | +++ (MIC ≦ 4 μg/mL) | +++ (MIC ≦ 4 μg/mL) | +++ (MIC ≦ 4 μg/mL) | +++ (MIC ≦ 4 μg/mL) | +++ (MIC ≦ 4 μg/mL) | +++ (MIC ≦ 4 μg/mL) | + (12 ≦ MIC ≦ 32 μg/mL) |  |  |  |
| Cn1cc(NC(=O)c2cc3ccccc3cn2)cc1C(=O)Nc1ccc(C(=O)Nc2cn(C)c(C(=O)NCCN3CCN(CCOC(=O)CNC(=O)C4OC(O)C(O)C(O)C4O)CC3)n2)cc1 (centres unmarked) [Compound A-76] | +++ (MIC ≦ 4 μg/mL) | +++ (MIC ≦ 4 μg/mL) | +++ (MIC ≦ 4 μg/mL) | >32 µg/mL | +++ (MIC ≦ 4 μg/mL) | +++ (MIC ≦ 4 μg/mL) | +++ (MIC ≦ 4 μg/mL) | >32 µg/mL |  |  |  |
| Cn1cc(NC(=O)c2cc3c(N)cccc3cn2)cc1C(=O)Nc1ccc(C(=O)Nc2cn(C)c(C(=O)NCCN3CCC(O)CC3)n2)cc1 [Compound A-8] | +++ (MIC ≦ 4 μg/mL) | +++ (MIC ≦ 4 μg/mL) | +++ (MIC ≦ 4 μg/mL) | ++ (4 < MIC < 12 μg/mL) | +++ (MIC ≦ 4 μg/mL) | ++ (4 < MIC < 12 μg/mL) | +++ (MIC ≦ 4 μg/mL) | ++ (4 < MIC < 12 μg/mL) |  |  |  |
| CN[C@H](CC(C)C)C(=O)N[C@H]1C(=O)N[C@@H](CC(N)=O)C(=O)N[C@H]2C(=O)N[C@H]3C(=O)N[C@H](C(=O)N[C@H](C(=O)O)c4cc(O)cc(O)c4-c4cc3ccc4O)[C@H](O)c3ccc(c(Cl)c3)Oc3cc2cc(c3O[C@@H]2O[C@H](CO)[C@@H](O)[C@H](O)[C@H]2O[C@H]2C[C@](C)(N)[C@H](O)[C@H](C)O2)Oc2ccc(cc2Cl)[C@H]1O [Vancomycin] |  |  |  |  |  |  |  |  | 15 mm | 19 mm | 15 mm |
